Read-outs that look alike come from different tables or passages of the source.
Key:
human GAL3 receptor = biological target: T1, human GAL3 receptor (Homo sapiens, UniProt O60755); experiment: Radioligand binding at cloned human GAL3 receptor; details: for Ki: read-out: hGAL3 Ki
T1 construct: expressed in transfected cells
T1 sequence (O60755 1-368): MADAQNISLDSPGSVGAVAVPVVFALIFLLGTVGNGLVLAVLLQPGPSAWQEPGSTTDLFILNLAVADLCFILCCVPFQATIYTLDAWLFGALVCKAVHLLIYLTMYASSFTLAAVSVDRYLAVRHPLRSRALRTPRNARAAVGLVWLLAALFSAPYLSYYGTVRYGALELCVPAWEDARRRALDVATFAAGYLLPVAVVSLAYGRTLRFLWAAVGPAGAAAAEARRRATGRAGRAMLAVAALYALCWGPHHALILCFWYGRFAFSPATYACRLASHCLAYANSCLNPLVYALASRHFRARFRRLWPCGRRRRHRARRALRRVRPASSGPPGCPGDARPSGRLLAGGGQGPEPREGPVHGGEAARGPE
Protocol: The present invention provides for a method of determining the binding affinity of a GAL3 antagonist, wherein the GAL3 antagonist is dissolved in a “suitable solvent”. A “suitable solvent” means one which permits the measurement of binding affinity of the GAL3 antagonist to the human GAL3 receptor at concentrations less than 1 μM, preferably less than 100 nM. Examples of solvents include, but are not limited to, DMSO, ethanol, N,N-dimethylacetamide, or water. For indolones, the preferred solvent is 3% DMSO (final concentration in the assay). For pyrimidines, the preferred solvent is 1% ethanol/0.09% polypuronic acid F-127 (final concentration in the assay). For any other type of compounds, the preferred solvent is the solvent which permits the measurement of binding affinity of a GAL3 antagonist at the lowest concentration. Once a suitable solvent is ascertained for the binding assay of the human GAL3 receptor, the same solvent is used in assays to determine the binding affinity for instance, at the GAL1 receptor.
The binding properties of the pyrimidines of the present invention were evaluated at the cloned human galanin receptors, GAL1, GAL2, and GAL3, using protocols described herein.
The binding properties of the indolones of the present invention were evaluated at the cloned human galanin receptors, GAL1, GAL2, and GAL3, using protocols described herein.
LM(tk-) cells were stably transfected with the human GAL1 or GAL3 receptor. CHO cells were stably transfected with the human GAL2 receptor.
cDNAs for the human and rat GAL1, and human and rat GAL3 receptors were transfected with a G-418 resistant gene into the mouse fibroblast LM(tk-) cell line by a calcium phosphate transfection method (Cullen, 1967). Stably transfected cells were selected with G-418. Human and rat GAL2 receptors were similarly transfected into CHO cells.
Membranes were harvested from stably transfected LM(tk-) cells. Adherent cells were washed twice in ice-cold phosphate buffered saline (138 mM NaCl, 8.1 mM Na2HPO4, 2.5 mM KCl, 1.2 mM KH2PO4, 0.9 mM CaCl2, 0.5 mM MgCl2, pH 7.4) and lysed by sonication in ice-cold sonication buffer (20 mM Tris-HCl, 5 mM EDTA, pH 7.7). Large particles and debris were cleared by low speed centrifugation (200×g, 5 min, 4° C.). Membranes were collected from the supernatant fraction by centrifugation (32,000×g, 18 min, 4° C.), washed with ice-cold hypotonic buffer, and collected again by centrifugation (32,000×g, 18 min, 4° C.). The final membrane pellet was resuspended by sonication into a small volume of ice-cold binding buffer (−1 ml for every 5 plates: 10 mM NaCl, 20 mM HEPES, 0.22 mM KH2PO4, 1.26 mM CaCl2, 0.81 mM MgSO4, pH 7.4). Protein concentration was measured by the Bradford method (Bradford, 1976) using Bio-Rad Reagent, with bovine serum albumin as a standard. Membranes were held on ice for up to one hour and used fresh, or flash frozen and stored in liquid nitrogen. Membranes were prepared similarly from CHO cells.
Galanin Receptors: Binding assays were performed according to the following published methods: human GAL3 (PCT International Publication No. WO 98/15570), human GAL1 (PCT International Publication No. WO 95/2260) human GAL2 (PCT International Publication No. WO 97/26853).
(§1) Binding data were analyzed using nonlinear regression and statistical techniques available in the GraphPAD Prism package (San Diego, Calif.). Enzymatic assay data were derived from a standard curve of reference compound data.

human 5HT2A receptor = biological target: T2, human 5HT2A receptor (Homo sapiens, UniProt P28223); experiment: Radioligand binding at human 5HT2A receptor; details: read-out: h5HT2A Ki
T2 construct: expressed in transfected cells; host or cells: COS-7 cells, transient, vector pCEXV-3
T2 sequence (P28223 whole entry): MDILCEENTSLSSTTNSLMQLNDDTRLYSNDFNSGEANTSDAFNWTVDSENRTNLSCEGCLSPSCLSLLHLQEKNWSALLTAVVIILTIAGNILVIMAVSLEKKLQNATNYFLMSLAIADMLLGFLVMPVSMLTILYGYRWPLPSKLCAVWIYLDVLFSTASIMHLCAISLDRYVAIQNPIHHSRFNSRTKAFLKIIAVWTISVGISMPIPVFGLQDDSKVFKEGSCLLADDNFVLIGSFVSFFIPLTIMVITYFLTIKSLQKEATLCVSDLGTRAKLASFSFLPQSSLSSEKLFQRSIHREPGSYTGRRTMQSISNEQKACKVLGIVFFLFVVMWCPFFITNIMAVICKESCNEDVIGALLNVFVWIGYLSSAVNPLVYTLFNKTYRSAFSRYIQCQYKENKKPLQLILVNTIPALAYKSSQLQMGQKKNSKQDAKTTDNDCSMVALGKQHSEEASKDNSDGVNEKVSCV
Protocol: Human 5HT2; Receptor: The coding sequence of the human 5HT2A receptor was obtained from a human brain cortex cDNA library, and cloned into the cloning site of pCEXV-3 eukaryotic expression vector. This construct was transfected into COS-7 cells by the DEAE-dextran method (Cullen, 1987). Cells were harvested after 72 hours and lysed by sonication in 5 mM Tris-HCl, 5 mM EDTA, pH 7.5. The cell lysates were subjected to centrifugation at 1000 rpm for 5 minutes at 4° C., and the supernatant was subjected to centrifugation at 30,000×g for 20 minutes at 4° C. The pellet was suspended in 50 mM Tris-HCl buffer (pH 7.7 at room temperature) containing 10 mM MgSO4, 0.5 mM EDTA, and 0.1% ascorbate. The affinity of compounds at 5HT2A receptors were determined in equilibrium competition binding assays using [^3H]ketanserin (1 nM). Nonspecific binding was defined by the addition of 10 μM mianserin. The bound radioligand was separated by filtration through GF/B filters using a cell harvester.
as §1

[1] = biological target: T3, human dopamine D5 receptor (Homo sapiens, UniProt P21918); experiment: Binding at dopamine D5 receptor; details: read-out: hD5 Ki
T3 construct: expressed in transfected cells
T3 sequence (P21918 whole entry): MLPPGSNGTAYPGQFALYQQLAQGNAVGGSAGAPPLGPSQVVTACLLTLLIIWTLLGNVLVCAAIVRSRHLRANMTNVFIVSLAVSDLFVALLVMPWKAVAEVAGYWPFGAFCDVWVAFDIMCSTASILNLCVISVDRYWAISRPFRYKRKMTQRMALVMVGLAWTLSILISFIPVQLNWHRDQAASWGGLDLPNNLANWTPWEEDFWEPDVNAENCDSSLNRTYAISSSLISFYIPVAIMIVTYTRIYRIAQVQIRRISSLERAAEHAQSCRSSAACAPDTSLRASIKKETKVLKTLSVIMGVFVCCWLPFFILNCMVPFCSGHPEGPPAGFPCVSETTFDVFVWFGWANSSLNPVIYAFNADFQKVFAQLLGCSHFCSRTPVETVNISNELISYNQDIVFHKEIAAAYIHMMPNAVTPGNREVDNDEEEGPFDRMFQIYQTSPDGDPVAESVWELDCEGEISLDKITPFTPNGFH
Source text: Other receptors: Cell membranes expressing human dopamine D1, D2, D4 and rat D3 receptors were purchased through BioSignal, Inc. (Montreal, Canada). Binding assays using the histamine H1 receptor; dopamine receptors; and α1A, α1B, and α2 adrenergic receptors may be carried out according to the procedures described in U.S. Pat. No. 5,780,485, the disclosure of which is hereby incorporated by reference in its entirety into this application. Binding assays using the dopamine D5 receptor may be carried out according to the procedures described in U.S. Pat. No. 5,882,855, the disclosure of which is hereby incorporated by reference in its entirety into this application. Binding assays for the human α1D adrenergic receptor may be carried out according to the procedures described in U.S. Pat. No. 6,156,518, the disclosure of which is hereby incorporated by reference in its entirety into this application.
as §1

Compound	Ki (human GAL3 receptor; Table 7)	Ki (human GAL3 receptor; Table 9)	Ki (human 5HT2A receptor)	Ki [1]	GAL3/GAL1 binding ratio (Ki GAL1 divided by Ki GAL3) (human GAL3 receptor)
O=C1C(=Nc2cccc(C(F)(F)F)c2)c2ccccc2N1c1ccccc1 [Example 92, 1-PHENYL-3-[[3-(TRIFLUOROMETHYL)PHENYL]IMINO]-1,3-DIHYDRO-2H-INDOL-2-ONE]	38 nM	38 nM	> 50 µM	29.3 µM	
Cc1ccc(Nc2cc(N3CCCCC3)nc(N3CCN(c4ncccc4C(F)(F)F)CC3)n2)cc1 [Example 34]			> 50 µM		39

Reference: US20040110821A1, “GAL3 receptor antagonists for the treatment of affective disorders” (priority 2002, published 2004)
